Assay [1] deals with corpus cavernosal smooth muscle cells (CCSM). In words: cAMP production in primary corpus cavernosal / penile vascular smooth muscle cells (CCSM, PVSM). The format is cell-based, mouse. Particulars: 10 min; for adenosine-mediated cAMP induction was blocked: CCSM, MRS1706 10 μM, ZM241385 50 nM. The protocol: PVSM were isolated and cultured from mouse penes. The cells were be switched to serum-free medium and treated with different concentrations of adenosine with or without A2B antagonist (MRS1706-1 μM) or A2A agonist (CGS-21680-1 μM) alone for 10 min. Then cellular extracts were collected and cAMP levels were measured using an ELISA kit. The data represent mean±SE.
Data are presented as mean±SE. *, p<0.01.
FIG. 18. Adenosine stimulated both cAMP and cGMP induction in corpus cavernosal smooth muscle cells (CCSM) via A2BR activation. (a) Adenosine receptor expression profile in purified primary CCSM. CCSM were purified from adult mouse penes. […] (b) CCSM were isolated and cultured from mouse penes. The cells were switched to serum-free medium and treated with different concentrations of adenosine with or without A2BR antagonist (MRS1706-10 μM), A2AR antagonist (ZM241385-50 nM) or A2AR agonist (CGS-21680-10 μM) alone for 10 min. Then cellular extracts were collected and cAMP levels were measured using an ELISA kit. The data represent mean±SE. *p<0.05, adenosine treated versus the untreated; **p<0.05, adenosine plus MRS1706 or ZM241385 versus the adenosine treated. (c) CCSM were isolated from penes of the wild type and A2BR-deficient mice and cultured with or without adenosine (100 μM), NECA (10 μM), a potent adenosine receptor agonist, forskolin (10 μM), an adenylyl cyclase agonist. After 10 min treatment, the cellular extracts were collected and cAMP levels were measured by using a commercial enzyme immunoassay kit (Amersham Pharmacia). N=4. *p<0.05, adenosine, forskolin and NECA treated versus the untreated control. (d) Corpus cavernosal strips (CCS) were isolated from wild type and A2BR-deficient mice and treated with different concentrations of adenosine in the presence or absence of L-NAME (100 μM) or MRS1706 (10 μM). 10 min after treatment, cellular extracts were collected and cGMP levels were measured by using a commercial enzyme immunoassay kit (Amersham Pharmacia). Data are expressed as mean±SE. *p<0.05, adenosine treated versus the control; **p<0.05, adenosine treated with MRS1706 versus the adenosine treated; ***p<0.05, CCS of A2BR-deficient mice treated with adenosine versus the CCS of wild type mice treated with adenosine. N=6-7. (e) CCSM were isolated from wild type and A2BR deficient mice and cultured with or without adenosine (100 μM), NECA (10 μM), a potent adenosine receptor agonist, forskolin (10 μM), an adenylyl cyclase agonist, or diethylamine-NONOate (DEA/NO) (10 μM). After 10 min treatment, the cellular extracts were collected and cAMP levels were measured by using a commercial enzyme immunoassay kit (Amersham Pharmacia). N=4. *p<0.05, DEA/NO treated versus to the untreated control. (f) Both cAMP and cGMP induction contribute to adenosine-mediated decreased PE-induced phosphorylation of myosin light chain (MLC). CCSM and CCS were isolated and cultured with the treatment of phenylephrine (PE-10 μM) in the presence or absence of adenosine (100 μM) or L-NAME (100 μM). 10 min after treatment, cellular extracts were isolated and western blot analysis were performed. The total MLC and phosphorylated MLC at S20 were detected by specific antibodies.
Isolation of primary corpus cavernosal smooth muscle cells (CCSM). Corpus cavernosum tissues were dissected as described above. Cavernosal tissue was washed in PBS and minced into […] pieces. Segments were incubated in 5-10 ml enzyme solutions containing 0.02% collagenase A (0.272 U/mg protein, Roche, Mannheim, Germany) and 0.5% elastase (3.73 U/mg protein, Cell system, St Katharinen, Germany) in a 75 mm flask at 37° C. for 6 hours. Enzymatic digestion was terminated by adding 10 ml DMEM supplemented with 10% fetal calf serum (FCS). […]

Assay [2] deals with corpus cavernosal strips (CCS). Nature of the assay: EFS-induced cGMP in CCS of ADA+ and ADA-/- mice. In kind it is cell-based, mouse. Particulars: EFS 5V 30 Hz, MRS1706 (10 nM), ZM241385 (50 nM), L-NAME (100 μM). The protocol: FIG. 19. EFS leads to increased cAMP and cGMP production via A2BR in ADA-deficient mice. (a-b) Corpus cavernosal strips (CCS) of the ADA−/− and ADA+ mice were isolated and treated with 10 μM phenylephrine (PE) to induce precontraction. Then CCS were treated with MRS1706 (10 nM), ZM241385 (50 nM) or L-NAME (100 μM) prior to electrical field stimulation (EFS) at 5V and 30 Hz. 60 second after nerve stimulation, the CCS were quickly frozen and cellular cAMP (a) and cGMP (b) were measured by using commercial enzyme immunoassay kit (Amersham Pharmacia). N=4. Data are expressed as mean±SE. *p<0.05, ADA deficient mice versus the control; **p<0.05, CCS of ADA-deficient mice with MRS1706 and/or L-NAME treatment versus CCS of ADA-deficient mice without treatment; ***p<0.05, CCS of the control mice with MRS1706 and/or L-NAME treatment versus CCS of the control mice without treatment.
Function experiments. […] The contractility of each isolated corpus cavernosum smooth muscle cells (CCSM) strip was measured using an isometric force transducer (AD Instrument Inc., Georgia, Vt., USA). […] The contractile responses of the strips were analysed by adding 10 μM phenylephrine to the bath, and force changes were recorded in response to drug application and to electrical field stimulation. […]

The structures appear in SMILES notation.

The source of these data is patent US20100254965A1, “Adenosine Signaling in Diagnosis, Treatment, and Prevention of Priapism and Erectile Dysfunction” (BOARD OF REGENTS ,THE UNIVERSITY OF TEXAS SYSTEM, priority 2006, published 2010).

In the case of `CCCn1c(=O)c2[nH]c(-c3ccc(OCC(=O)Nc4ccc(C(C)=O)cc4)cc3)nc2n(CCC)c1=O` [MRS1706], in assay [1], the “adenosine-mediated cAMP induction was blocked” value is listed as “blocked”. In addition, the “EFS-increased levels of cGMP were inhibited” value in assay [2] is “significantly inhibited”.

On to `Nc1nc(NCCc2ccc(O)cc2)nc2nc(-c3ccco3)nn12` [ZM241385], for which the “adenosine-mediated cAMP induction was blocked” value in assay [1] is recorded as “not”. Moreover, the “EFS-increased levels of cGMP were inhibited” value in assay [2] is “not”.

In the case of `Nc1ncnc2c1ncn2[C@@H]1O[C@H](CO)[C@@H](O)[C@H]1O` [adenosine], the cAMP production result in assay [1] (CCSM/PVSM of A2BR deficient (A2B-/-) mice) is listed as “failed to induce cAMP production”; in assay [1] (CCSM/PVSM of A2BR deficient (A2B-/-) mice, listed as Adenosine) it was “essentially no effect on cAMP levels”; in assay [1] (wild type CCSM/PVSM, agent alone), “induced cAMP”; in assay [1] (wild type CCSM/PVSM, agent alone, listed as Adenosine), “elevate cAMP levels”.
